From US20250161273A1, “PHARMACEUTICAL COMPOSITION COMPRISING DIPHENYLDIAZOLE DERIVATIVES AND METHODS OF USE” (MODAG GMBH, priority 2022, published 2025)
Read-outs that look alike come from different tables or passages of the source.

Key:
[1] = phase 1 first-in-human trial, single ascending dose (SAD) PK; assay type: in vivo; settings: for fold increase in AUC / fold increase in Cmax: SAD; for Tmax / AUC(0-t) / Cmax / half-life: human, plasma; for Cmax: read-out: Cmax (geometric mean); for half-life: read-out: T1/2 (geometric mean) (converted)
Description: (§1) Anle138b was studied in a single-centre, double-blind, randomised, placebo-controlled single ascending dose (SAD) and multiple ascending dose (MAD) study in healthy subjects. Eligible participants were randomly assigned (1:1 for sentinel subjects and 1:5 for main group) to placebo or anle138b (dose ranging from 50 mg to 300 mg per day), respectively. In addition, the effect of food on the pharmacokinetics (PK) of anle138b in healthy subjects was examined at doses of 150 mg per day (FES, food effect study). Participants were randomized to treatment sequence (fed→fasted) or (fasted→fed). Treatment for the SAD, MAD and FES arms of the study was administered orally in hard gelatin capsules containing either 10 mg or 30 mg of anle138b with excipient (i.e., lauroyl polyoxyl-32 glycerides) or excipient only. The primary endpoints were safety and tolerability, the secondary endpoint was pharmacokinetics. Data from all randomized individuals were evaluated. [Clinicaltrials.gov-identifier: NCT04208152. EudraCT-number: 2019-004218-33]
(§2) Study design: A single-centre, double-blind, randomised, placebo-controlled single ascending dose (SAD) and multiple ascending dose (MAD) study of anle138b in doses of up to 300 mg per day in healthy subjects. The effect of food (FES) on the PK of anle138b in healthy subjects was examined using doses of 150 mg. Participants were recruited from Quotient Sciences (the “CRO”, Nottingham, UK) volunteer database. Approvals from the ethical review board and from the Medicines and Healthcare products Regulatory Agency (UK) were obtained. This study was conducted in accordance with the protocol and with the following legislation: The updated version of the international Council for Harmonisation Good Clinical Practice (GCP) including the integrated Addendum E6, the Medicines for Human Use (Clinical Trials) Regulations including amendments No. 1928, 2984 and 941. In addition, the study was performed according to the ethical principles outlined in the World Medical Association Declaration of Helsinki and its amendments. The study data was monitored. An independent study monitor was appointed to verify that the study was conducted in accordance with current GCP, regulatory requirements, the protocol and that the data were authentic, accurate and complete.
(§3) In SAD, subjects received a single dose of anle138b or placebo after fasting from all food and drink (except water) for a minimum of 8 h prior to dosing. The dosing in the four SAD-cohorts were 50 mg, 100 mg, 200 mg and 300 mg of free anle138b equivalent, QD, cohorts A, B, C and D respectively. In the MAD part, participants received anle138b or placebo once daily (QD) for 7 days after fasting from all food and drink (except water) for a minimum of 8 h prior to dosing. The dosing in the three MAD-cohorts was 100 mg, 200 mg and 300 mg of free anle138b equivalent, cohorts AM, BM and CM, respectively. Post dosing mouth and hand checks were conducted to ensure the capsules were swallowed. In-study decisions were made by the safety advisory committee (SAC) comprising the principal investigator, the sponsor's medical monitor and a PK expert. For dose escalation to proceed, data needed to be available from a minimum of 6 subjects per cohort with completed per protocol safety and PK assessments up to 48 h after dosing to ensure at least 4 subjects had received active IMP. The decision to proceed to the next higher dose level was based on safety, tolerability and available PK data to 48 h post-administration. The following data were analyzed: Adverse events, vital signs, safety laboratory, ECG, physical examinations, plasma concentrations of anle138b with interim PK parameter estimations (Tmax, Cmax, AUC0-24, AUC0-tau, AUC0-last and T½, where applicable). Data were provided to the SAC in accordance with CRO standard operating procedure (SOP) on interim dose decision-making and dose escalation. […]

[2] = phase 1 first-in-human trial, multiple ascending dose (MAD) PK; assay type: in vivo; settings: for reduction of AUC compared to Day 1 / reduction of Cmax compared to Day 1: Day 7, fasted; for fold increase in AUC / fold increase in Cmax: MAD Day 1; for AUC: read-out: AUC(0-tau) (geometric mean); for Cmax: read-out: Cmax (geometric mean)
Description: as §1, §2, §3

[3] = 1.5-fold increase in dose from 200 mg to 300 mg
[4] = 2-fold increase in dose from 50 mg to 100 mg
[5] = 2-fold increase in dose from 100 mg to 200 mg
[6] = po, 50 mg, healthy volunteers, fasted, single oral 50 mg
[7] = po, 100 mg, healthy volunteers, fasted, single oral 100 mg
[8] = po, 200 mg, healthy volunteers, fasted, single oral 200 mg
[9] = po, 300 mg, healthy volunteers, fasted, single oral 300 mg
[10] = human, plasma, oral, 100 mg, healthy volunteers, fasted, 100 mg QD, Day 1
[11] = human, plasma, oral, 100 mg, healthy volunteers, fasted, 100 mg QD, Day 7
[12] = human, plasma, oral, 200 mg, healthy volunteers, fasted, 200 mg QD, Day 1
[13] = human, plasma, oral, 200 mg, healthy volunteers, fasted, 200 mg QD, Day 7
[14] = human, plasma, oral, 300 mg, healthy volunteers, fasted, 300 mg QD, Day 1
[15] = human, plasma, oral, 300 mg, healthy volunteers, fasted, 300 mg QD, Day 7

Brc1cccc(-c2cc(-c3ccc4c(c3)OCO4)n[nH]2)c1 [anle138b, 3-(1,3-benzodioxol-5-yl)-5-(3-bromophenyl)-1H-pyrazole]
fold increase in AUC [1, 3]: ~1.5 fold
fold increase in Cmax [1, 3]: ~1.5 fold
fold increase in AUC [1, 4]: ~3.3 fold
fold increase in Cmax [1, 4]: ~2.9 fold
fold increase in AUC [1, 5]: ~3.0 fold
fold increase in Cmax [1, 5]: ~2.9 fold
practical terminal elimination half-time ([1]; healthy volunteers, overall): ~12 h
Tmax ([1]; oral, healthy volunteers, single dose 50-300 mg, post-administration, read-out: median Tmax, all SAD cohorts): 1 to 1.5 h
Tmax ([1]; po, 50 mg, healthy volunteers, fasted, single oral 50 mg (Cohort A), read-out: Tmax (median)): 1 h
Tmax ([1]; po, 50 mg, healthy volunteers, fasted, single oral 50 mg (Cohort A), read-out: Tmax (range)): 0.5 to 2 h
AUC(0-t) ([1]; po, 50 mg, healthy volunteers, fasted, single oral 50 mg, read-out: AUC(0-24) (geometric mean)): ~113 ng·h/mL
AUC(0-t) ([1]; po, 50 mg, healthy volunteers, fasted, single oral 50 mg, read-out: AUC(0-last) (geometric mean)): 109 ng·h/mL
Cmax [1, 6]: ~54.3 ng/mL
half-life [1, 6]: 3.9 h
Tmax ([1]; po, 100 mg, healthy volunteers, fasted, single oral 100 mg (Cohort B), read-out: Tmax (median)): 1.5 h
Tmax ([1]; po, 100 mg, healthy volunteers, fasted, single oral 100 mg (Cohort B), read-out: Tmax (range)): 0.5 to 2 h
AUC(0-t) ([1]; po, 100 mg, healthy volunteers, fasted, single oral 100 mg, read-out: AUC(0-24) (geometric mean)): > 300 ng·h/mL
AUC(0-t) ([1]; po, 100 mg, healthy volunteers, fasted, single oral 100 mg, read-out: AUC(0-last) (geometric mean)): 372 ng·h/mL
Cmax [1, 7]: ~156 ng/mL
half-life [1, 7]: 10.8 h
Tmax ([1]; po, 200 mg, healthy volunteers, fasted, single oral 200 mg (Cohort C), read-out: Tmax (median)): 1.5 h
Tmax ([1]; po, 200 mg, healthy volunteers, fasted, single oral 200 mg (Cohort C), read-out: Tmax (range)): 1 to 2 h
AUC(0-t) ([1]; po, 200 mg, healthy volunteers, fasted, single oral 200 mg, read-out: AUC(0-24) (geometric mean)): ~1090 ng·h/mL
AUC(0-t) ([1]; po, 200 mg, healthy volunteers, fasted, single oral 200 mg, read-out: AUC(0-last) (geometric mean)): 1130 ng·h/mL
Cmax [1, 8]: ~458 ng/mL
half-life [1, 8]: 12.8 h
Tmax ([1]; po, 300 mg, healthy volunteers, fasted, single oral 300 mg (Cohort D), read-out: Tmax (median)): 1.5 h
Tmax ([1]; po, 300 mg, healthy volunteers, fasted, single oral 300 mg (Cohort D), read-out: Tmax (range)): 1.5 to 2 h
AUC(0-t) ([1]; po, 300 mg, healthy volunteers, fasted, single oral 300 mg, read-out: AUC(0-24) (geometric mean)): ~1650 ng·h/mL
AUC(0-t) ([1]; po, 300 mg, healthy volunteers, fasted, single oral 300 mg, read-out: AUC(0-last) (geometric mean)): 1720 ng·h/mL
Cmax [1, 9]: ~704 ng/mL
half-life [1, 9]: 16.2 h
reduction of AUC compared to Day 1 ([2]; MAD 100 mg group): about 53%
reduction of Cmax compared to Day 1 ([2]; MAD 100 mg group): about 53%
reduction of AUC compared to Day 1 ([2]; MAD 200 mg group): about 70%
reduction of Cmax compared to Day 1 ([2]; MAD 200 mg group): about 70%
reduction of AUC compared to Day 1 ([2]; MAD 300 mg group): 71%
reduction of Cmax compared to Day 1 ([2]; MAD 300 mg group): 66%
fold increase in AUC [2, 3]: 2.4 fold
fold increase in Cmax [2, 3]: 2.0 fold
fold increase in AUC [2, 5]: 3.5 fold
fold increase in Cmax [2, 5]: 3.3 fold
accumulation ratios per cohort ([2]; MAD, Day 7 vs Day 1): below 0.54
day by which steady state exposure appeared to be reached ([2]; MAD, based on trough levels): ≤ 5 days
Tmax ([2]; human, plasma, oral, 100 mg, healthy volunteers, fasted, 100 mg QD (Cohort AM), Day 1, read-out: Tmax (median)): 1 h
Tmax ([2]; human, plasma, oral, 100 mg, healthy volunteers, fasted, 100 mg QD (Cohort AM), Day 1, read-out: Tmax (range)): 1 to 1.5 h
Tmax ([2]; human, plasma, oral, 100 mg, healthy volunteers, fasted, 100 mg QD (Cohort AM), Day 7, read-out: Tmax (median)): 1.25 h
Tmax ([2]; human, plasma, oral, 100 mg, healthy volunteers, fasted, 100 mg QD (Cohort AM), Day 7, read-out: Tmax (range)): 1 to 1.5 h
AUC [2, 10]: ~261 ng·h/mL
Cmax [2, 10]: ~135 ng/mL
AUC [2, 11]: ~141 ng·h/mL
Cmax [2, 11]: ~70.9 ng/mL
half-life ([2]; human, plasma, oral, 100 mg, healthy volunteers, fasted, 100 mg QD, Day 7, read-out: T1/2 (geometric mean) (converted)): ~4.23 h
Tmax ([2]; human, plasma, oral, 200 mg, healthy volunteers, fasted, 200 mg QD (Cohort BM), Day 1, read-out: Tmax (median)): 1.5 h
Tmax ([2]; human, plasma, oral, 200 mg, healthy volunteers, fasted, 200 mg QD (Cohort BM), Day 1, read-out: Tmax (range)): 1 to 2.02 h
Tmax ([2]; human, plasma, oral, 200 mg, healthy volunteers, fasted, 200 mg QD (Cohort BM), Day 7, read-out: Tmax (median)): 1 h
Tmax ([2]; human, plasma, oral, 200 mg, healthy volunteers, fasted, 200 mg QD (Cohort BM), Day 7, read-out: Tmax (range)): 1 to 1.5 h
AUC [2, 12]: ~905 ng·h/mL
Cmax [2, 12]: ~447 ng/mL
AUC [2, 13]: ~308 ng·h/mL
Cmax [2, 13]: ~128 ng/mL
half-life at 7 days ([2]; human, plasma, oral, 200 mg, healthy volunteers, fasted, 200 mg QD, Day 7, read-out: T1/2 (geometric mean) (converted)): ~10 h
Tmax ([2]; human, plasma, oral, 300 mg, healthy volunteers, fasted, 300 mg QD (Cohort CM), Day 1, read-out: Tmax (median)): 1.5 h
Tmax ([2]; human, plasma, oral, 300 mg, healthy volunteers, fasted, 300 mg QD (Cohort CM), Day 1, read-out: Tmax (range)): 1.5 to 2 h
Tmax ([2]; human, plasma, oral, 300 mg, healthy volunteers, fasted, 300 mg QD (Cohort CM), Day 7, read-out: Tmax (median)): 1.5 h
Tmax ([2]; human, plasma, oral, 300 mg, healthy volunteers, fasted, 300 mg QD (Cohort CM), Day 7, read-out: Tmax (range)): 1 to 1.5 h
AUC [2, 14]: ~2210 ng·h/mL
Cmax [2, 14]: ~910 ng/mL
AUC [2, 15]: ~633 ng·h/mL
Cmax [2, 15]: ~307 ng/mL
half-life ([2]; human, plasma, oral, 300 mg, healthy volunteers, fasted, 300 mg QD, Day 7, read-out: T1/2 (geometric mean) (converted)): ~6.07 h
Tmax ([2]; human, plasma, oral, healthy volunteers, 100-300 mg QD, post-administration, read-out: median Tmax, all MAD cohorts): 1 to 1.5 h
